This note sets out measurements from patent US20240383905A1, “FGFR INHIBITORS AND METHODS OF USE THEREOF” (3H PHARMACEUTICALS CO., LTD., priority 2021, published 2024).

Data set [1] has as its target T1, FGFR2 (Homo sapiens, UniProt P21802).
T1 construct: purchased Carna 08-134
As to the kind of experiment: FGFR2 Biochemical Caliper Assay (KinEASE-TK kit). Conditions: 0.07 nM FGFR2; compound incubated with protein 10 min, reaction 45 min at RT; read-out: FGFR2 Cliper IC50.

For data set [2], the system named is SNU16 cells. The data set is described as follows: SNU16 Cancer Cell Line Proliferation Assay (CellTiter-Glo). The format is cell-based. Conditions: Homo sapiens, SNU-16, 72 h. In a few lines: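 Luminescent ATP read-out after 72 h at 37 °C gave IC50 values; compounds tested as 9 three-fold serial dilutions on 5000 SNU16 cells per well, with DMSO as control.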
A general note: Cellular ATP, detected with luciferase, serves as a proxy for viable cell number.

The nature of data set [3]: Pharmacokinetics in SD Rat. Conditions: Sprague-Dawley, male SD rat, plasma; for clearance: IV 3 mg/kg; for AUC(0-inf) / half-life / Cmax: PO 15 mg/kg (IV used for Clearance); for Cmax: read-out: Cmax. The format is in vivo, Sprague-Dawley (SD) rat. Here is the method:
Animal studies were done as approved protocols by the Institutional Animal Care and Use Committee at INVIVO Biotech Co., Ltd.
Animal information: Sprague-Dawley (SD) rat, SPF, 6-8 weeks, Male, weight 200-250 g, purchased from Beijing Vital River Lab (Beijing, People's Republic of China).
Formulation: Prepare 1.5 mg/ml and 0.6 mg/ml compound solution in […](20% HPβCD) for PO and IV respectively, dosing immediately after preparation.
Administration: PO and IV;

Data set [4] concerns the target T2, FGFR3 (Homo sapiens, UniProt P22607).
T2 construct: purchased Carna 08-135
The data set is described as follows: FGFR3 Biochemical Caliper Assay (KinEASE-TK kit). Conditions: ratio FGFR3/FGFR2 of the biochemical assay. The procedure, abridged:
(§1)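 KinEASE-TK HTRF readout: enzyme at 0.2 nM (FGFR1, FGFR3) preincubated 10 min at RT with 10-point 3-fold compound dilutions before TK-substrate/ATP start.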

The target of data set [5] is T3, FGFR1 (Homo sapiens, UniProt P11362).
T3 construct: purchased Carna 08-133
T3 sequence (P11362 22-822): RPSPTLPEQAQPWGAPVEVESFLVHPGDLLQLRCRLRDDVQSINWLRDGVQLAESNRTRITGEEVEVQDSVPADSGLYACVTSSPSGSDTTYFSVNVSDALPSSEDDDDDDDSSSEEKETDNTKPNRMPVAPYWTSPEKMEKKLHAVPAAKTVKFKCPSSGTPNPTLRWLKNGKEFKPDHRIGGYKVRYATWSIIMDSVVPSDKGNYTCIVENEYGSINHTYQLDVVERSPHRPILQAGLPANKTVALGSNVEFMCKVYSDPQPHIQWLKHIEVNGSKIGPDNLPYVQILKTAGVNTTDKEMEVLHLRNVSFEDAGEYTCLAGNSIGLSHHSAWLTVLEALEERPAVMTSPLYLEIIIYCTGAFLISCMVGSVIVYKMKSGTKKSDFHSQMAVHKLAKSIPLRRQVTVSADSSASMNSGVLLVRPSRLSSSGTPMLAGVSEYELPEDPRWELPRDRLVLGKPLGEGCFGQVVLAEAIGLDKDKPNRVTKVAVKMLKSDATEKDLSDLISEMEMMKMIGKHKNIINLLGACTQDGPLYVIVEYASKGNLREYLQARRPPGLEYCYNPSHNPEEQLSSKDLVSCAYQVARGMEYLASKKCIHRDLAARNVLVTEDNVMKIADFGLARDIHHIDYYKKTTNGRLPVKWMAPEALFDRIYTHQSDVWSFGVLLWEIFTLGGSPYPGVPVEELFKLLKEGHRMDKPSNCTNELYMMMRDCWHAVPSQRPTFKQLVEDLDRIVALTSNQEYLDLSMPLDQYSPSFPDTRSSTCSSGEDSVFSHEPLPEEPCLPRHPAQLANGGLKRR
As to the kind of experiment: FGFR1 Biochemical Caliper Assay (KinEASE-TK kit). Conditions: ratio FGFR1/FGFR2 of the biochemical assay. In a few lines:
as §1

T2 sequence (P22607 23-806): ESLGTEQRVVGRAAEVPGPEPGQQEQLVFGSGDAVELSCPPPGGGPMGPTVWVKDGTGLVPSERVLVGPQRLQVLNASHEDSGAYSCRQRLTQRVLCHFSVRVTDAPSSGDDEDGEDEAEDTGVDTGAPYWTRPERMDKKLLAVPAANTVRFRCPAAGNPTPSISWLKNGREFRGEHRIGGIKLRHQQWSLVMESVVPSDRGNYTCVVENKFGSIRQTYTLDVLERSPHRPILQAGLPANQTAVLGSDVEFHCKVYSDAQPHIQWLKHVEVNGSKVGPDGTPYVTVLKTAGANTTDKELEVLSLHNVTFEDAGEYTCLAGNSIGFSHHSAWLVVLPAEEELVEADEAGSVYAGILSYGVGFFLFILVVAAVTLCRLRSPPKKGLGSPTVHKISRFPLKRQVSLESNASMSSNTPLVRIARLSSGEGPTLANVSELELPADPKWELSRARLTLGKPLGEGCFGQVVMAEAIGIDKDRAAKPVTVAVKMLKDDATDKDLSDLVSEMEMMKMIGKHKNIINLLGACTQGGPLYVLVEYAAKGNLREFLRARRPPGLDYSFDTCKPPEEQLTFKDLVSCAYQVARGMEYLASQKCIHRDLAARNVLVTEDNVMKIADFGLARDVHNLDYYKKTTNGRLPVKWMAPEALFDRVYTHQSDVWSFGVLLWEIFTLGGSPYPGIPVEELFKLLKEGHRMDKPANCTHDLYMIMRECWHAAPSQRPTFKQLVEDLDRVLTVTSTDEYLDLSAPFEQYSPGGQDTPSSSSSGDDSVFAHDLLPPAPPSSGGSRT
T1 sequence (P21802 22-821): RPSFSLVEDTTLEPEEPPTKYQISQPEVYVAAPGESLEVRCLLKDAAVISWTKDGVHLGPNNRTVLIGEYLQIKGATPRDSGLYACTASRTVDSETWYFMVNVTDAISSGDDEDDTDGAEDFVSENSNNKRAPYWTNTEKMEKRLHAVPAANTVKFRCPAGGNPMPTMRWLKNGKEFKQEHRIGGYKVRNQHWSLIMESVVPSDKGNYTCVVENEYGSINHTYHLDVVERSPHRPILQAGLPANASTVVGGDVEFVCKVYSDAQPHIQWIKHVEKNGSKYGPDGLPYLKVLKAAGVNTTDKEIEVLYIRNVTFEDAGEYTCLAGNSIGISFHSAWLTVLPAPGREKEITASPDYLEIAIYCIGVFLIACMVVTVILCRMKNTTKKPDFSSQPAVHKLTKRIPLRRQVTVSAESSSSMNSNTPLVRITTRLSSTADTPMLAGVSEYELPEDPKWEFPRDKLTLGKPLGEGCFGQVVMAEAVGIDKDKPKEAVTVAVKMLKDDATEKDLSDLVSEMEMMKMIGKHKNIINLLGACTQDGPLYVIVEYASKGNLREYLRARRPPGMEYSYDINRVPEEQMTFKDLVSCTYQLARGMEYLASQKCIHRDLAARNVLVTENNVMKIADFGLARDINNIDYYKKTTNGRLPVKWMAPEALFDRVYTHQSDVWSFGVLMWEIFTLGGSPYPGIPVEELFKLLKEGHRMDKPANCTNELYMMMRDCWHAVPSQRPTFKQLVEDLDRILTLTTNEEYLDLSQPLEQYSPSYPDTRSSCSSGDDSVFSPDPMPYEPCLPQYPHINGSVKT

As a reminder, the IC50 is the concentration that inhibits the measured activity by half. As a reminder, the clearance is the rate of elimination divided by the concentration. In general, AUC(0-inf) refers to total exposure, with the tail of the curve extrapolated. As a reminder, the half-life is how long it takes for the measured level to halve. Lower therefore signals fast loss. In general, Cmax refers to the maximum level reached in the sampled fluid or tissue. Turning to `C=C(F)C(=O)Nc1ccc(-c2c(-c3ccc(C(=O)NCC(F)(F)F)c(OC)c3)c3c(N)ncc(C#N)c3n2C)cc1` [Compound 96, 4-(4-amino-7-cyano-2-(4-(2-fluoroacrylamido)phenyl)-1-methyl-1H-pyrrolo[3,2-c]pyridine-3-yl)-2-methoxy-N-(2,2,2-trifluoroethyl)benzamide], in data set [1], the IC50 is below 5 nM. In addition, the IC50 in data set [2] was at most 10 nM. Besides, in data set [3], the clearance is 3.1 mL/min/kg, the AUC(0-inf) amounted to 2700 ng·h/mL, the half-life was 6 h and the Cmax came out at 621 ng/mL. The “Selectivity FGFR3/FGFR2” value in data set [4] was “A+ (Selectivity of FGFR3/FGFR2 greater or equal to 150)”. Moreover, the “Selectivity FGFR1/FGFR2” value in data set [5] is reported as “A+ (Selectivity of FGFR1/FGFR2 greater or equal to 500)”.

Turning to `C=C(F)C(=O)Nc1ccc(-c2nn3ncnc(N)c3c2-c2ccc(C(=O)NC3CC(F)C3)c(OC)c2)cc1` (centres unmarked) [Compound 185, 4-(4-amino-6-(4-(2-fluoroacrylamido)phe-nyl)pyrazolo[5,1-f][1,2,4]triazin-5-yl)-N-(3-fluorocyclobutyl)-2-methoxybenzamide], the IC50 in data set [1] was above 10 nM. Moreover, the IC50 in data set [2] is at most 10 nM. Besides, in data set [3], the clearance was 26 mL/min/kg, the AUC(0-inf) is 1550 ng·h/mL, the half-life is 3 h and the Cmax turned out to be 507 ng/mL. Besides, in data set [4], the “Selectivity FGFR3/FGFR2” value is given as “A+ (Selectivity of FGFR3/FGFR2 greater or equal to 150)”. Moreover, in data set [5], the “Selectivity FGFR1/FGFR2” value was “A+ (Selectivity of FGFR1/FGFR2 greater or equal to 500)”.

`C=C(F)C(=O)Nc1ccc(-c2nn3ncnc(N)c3c2-c2ccc(C(=O)NC3CC3(F)F)c(OC)c2)cc1` (centres unmarked) [Compound 193, 4-(4-amino-6-(4-(2-fluoroacrylamido)phe-nyl)pyrazolo[5,1-f][1,2,4]triazin-5-yl)-N-(2,2-difluorocyclopropyl)-2-methoxybenzamide]: in data set [1], the IC50 fell in the range of 5 to 10 nM. Besides, in data set [2], the IC50 was at most 10 nM. In data set [3], the clearance is 8.4 mL/min/kg, the area under the curve AUC(0-inf) was found to be 4570 ng·h/mL, the half-life is 3.6 h and the Cmax worked out at 1390 ng/mL. Further, the “Selectivity FGFR3/FGFR2” value in data set [4] is “A+ (Selectivity of FGFR3/FGFR2 greater or equal to 150)”. Further, the “Selectivity FGFR1/FGFR2” value in data set [5] is “A+ (Selectivity of FGFR1/FGFR2 greater or equal to 500)”.

Consider `C=C(F)C(=O)Nc1ccc(-c2[nH]c3c(C#N)cnc(N)c3c2-c2ccc(C(=O)NC3CC3)c(OC)c2)cc1` [Compound 235, 4-(4-amino-7-cyano-2-(4-(2-fluoroacrylamido)phe-nyl)-1H-pyrrolo[3,2-c]pyridin-3-yl)-N-cyclopropyl-2-methoxybenzamide], for which, in data set [1], the IC50 was below 5 nM. In addition, the IC50 in data set [2] was at most 10 nM. Further, in data set [3], the clearance was 5.4 mL/min/kg, the area under the curve AUC(0-inf) was determined as 2070 ng·h/mL, the half-life is 1.3 h and the Cmax is 442 ng/mL. Moreover, the “Selectivity FGFR3/FGFR2” value in data set [4] is on record as “A+ (Selectivity of FGFR3/FGFR2 greater or equal to 150)”. Moreover, the “Selectivity FGFR1/FGFR2” value in data set [5] is “A+ (Selectivity of FGFR1/FGFR2 greater or equal to 500)”.

On to `C=C(F)C(=O)Nc1ccc(-c2nn3ncnc(N)c3c2-c2ccc(C(=O)NC3(C(F)(F)F)CC3)c(OC)c2)cc1` [Compound 308], for which the IC50 in data set [1] is above 10 nM. Further, the IC50 in data set [2] is at most 10 nM. In data set [3], the clearance worked out at 17 mL/min/kg, the AUC(0-inf) stood at 3760 ng·h/mL, the half-life was 2.4 h and the Cmax was 1180 ng/mL. Further, the “Selectivity FGFR3/FGFR2” value in data set [4] is recorded as “A (Selectivity of FGFR3/FGFR2 less than 150 but greater than or equal to 100)”. In addition, the “Selectivity FGFR1/FGFR2” value in data set [5] is given as “C (Selectivity of FGFR1/FGFR2 less than 200 but greater than or equal to 100)”.

Take `C=C(F)C(=O)Nc1ccc(-c2nn3ncnc(N)c3c2-c2ccc(C(=O)NCC3(C(F)(F)F)CC3)c(OC)c2)cc1` [Compound 309]: the IC50 in data set [1] was 5 to 10 nM. Moreover, in data set [2], the IC50 was at most 10 nM. In data set [3], the clearance is 11 mL/min/kg, the AUC(0-inf) stood at 3100 ng·h/mL, the half-life was 2.6 h and the Cmax was 957 ng/mL. For the same compound, the “Selectivity FGFR3/FGFR2” value in data set [4] is reported as “A+ (Selectivity of FGFR3/FGFR2 greater or equal to 150)”. Also, the “Selectivity FGFR1/FGFR2” value in data set [5] was “A+ (Selectivity of FGFR1/FGFR2 greater or equal to 500)”.

On to `C=C(F)C(=O)Nc1ccc(-c2nn3ncnc(N)c3c2-c2ccc(C(=O)NC34CC(F)(C3)C4)c(OC)c2)cc1` [Compound 330], for which, in data set [1], the IC50 is above 10 nM. This compound came in with an IC50 in data set [2] of at most 10 nM. Also, in data set [3], the clearance is 6.1 mL/min/kg, the AUC(0-inf) stood at 1820 ng·h/mL, the half-life is 2.4 h and the Cmax came out at 509 ng/mL. In addition, in data set [4], the “Selectivity FGFR3/FGFR2” value is “A+ (Selectivity of FGFR3/FGFR2 greater or equal to 150)”. For the same compound, the “Selectivity FGFR1/FGFR2” value in data set [5] is reported as “A+ (Selectivity of FGFR1/FGFR2 greater or equal to 500)”.
